Reference: ChEMBL document CHEMBL5678818, “Discovery of potent SOS1 inhibitors that block RAS activation via disruption of the RAS-SOS1 interaction” (Proc Natl Acad Sci U S A, 2019)

Key:
[1] = test system: Tyrosine-protein kinase ABL1 (Homo sapiens), P00519 [H396P]; assay: Inhibition of phosphorylated ABL1 H396P mutant (unknown origin) assessed as residual activity at 1000 nM by KINOMEscan analysis relative to control
[2] = biological target: Dual specificity protein kinase CLK1 (Homo sapiens) (UniProt P49759); assay: Inhibition of CLK1 (unknown origin) assessed as residual activity at 1000 nM by KINOMEscan analysis relative to control
[3] = biological target: T1, Serine/threonine-protein kinase DCLK3 (Homo sapiens) (UniProt Q9C098); assay: Inhibition of DCAMKL3 (unknown origin) assessed as residual activity at 1000 nM by KINOMEscan analysis relative to control
T1 sequence (whole entry): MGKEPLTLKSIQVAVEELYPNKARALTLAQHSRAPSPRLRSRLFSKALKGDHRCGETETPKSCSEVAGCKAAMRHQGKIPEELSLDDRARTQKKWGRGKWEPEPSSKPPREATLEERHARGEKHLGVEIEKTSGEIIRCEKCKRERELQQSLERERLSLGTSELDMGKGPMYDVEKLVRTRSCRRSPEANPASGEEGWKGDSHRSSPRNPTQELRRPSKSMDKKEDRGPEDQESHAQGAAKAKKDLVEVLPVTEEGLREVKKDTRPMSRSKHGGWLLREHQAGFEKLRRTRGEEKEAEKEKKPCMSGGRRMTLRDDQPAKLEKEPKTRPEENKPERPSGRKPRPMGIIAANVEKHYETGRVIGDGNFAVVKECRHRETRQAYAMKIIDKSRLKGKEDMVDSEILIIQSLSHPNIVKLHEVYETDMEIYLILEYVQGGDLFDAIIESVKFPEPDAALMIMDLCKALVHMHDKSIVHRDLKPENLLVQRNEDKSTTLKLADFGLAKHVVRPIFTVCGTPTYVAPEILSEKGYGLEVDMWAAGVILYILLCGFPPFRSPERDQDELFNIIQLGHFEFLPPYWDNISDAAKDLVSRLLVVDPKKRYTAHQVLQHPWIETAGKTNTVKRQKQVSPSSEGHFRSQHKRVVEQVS

[4] = biological target: Receptor tyrosine-protein kinase erbB-3 (Homo sapiens) (UniProt P21860); assay: Inhibition of ERBB3 (unknown origin) assessed as residual activity at 1000 nM by KINOMEscan analysis relative to control
[5] = biological target: T2, Dual specificity mitogen-activated protein kinase kinase 3 (Homo sapiens) (UniProt P46734); assay: Inhibition of MEK3 (unknown origin) assessed as residual activity at 1000 nM by KINOMEscan analysis relative to control
T2 sequence (whole entry): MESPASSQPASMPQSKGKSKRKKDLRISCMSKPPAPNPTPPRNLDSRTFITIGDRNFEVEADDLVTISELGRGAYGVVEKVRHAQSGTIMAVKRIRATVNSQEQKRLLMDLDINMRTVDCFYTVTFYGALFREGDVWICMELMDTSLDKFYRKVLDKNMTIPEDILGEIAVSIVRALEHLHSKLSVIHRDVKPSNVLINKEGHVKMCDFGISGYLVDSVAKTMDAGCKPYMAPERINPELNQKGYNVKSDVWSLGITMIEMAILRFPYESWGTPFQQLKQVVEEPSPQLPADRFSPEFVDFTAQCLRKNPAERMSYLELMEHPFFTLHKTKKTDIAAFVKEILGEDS

[6] = biological target: T3, Serine/threonine-protein kinase NLK (Homo sapiens) (UniProt Q9UBE8); assay: Inhibition of NLK (unknown origin) assessed as residual activity at 1000 nM by KINOMEscan analysis relative to control
T3 sequence (whole entry): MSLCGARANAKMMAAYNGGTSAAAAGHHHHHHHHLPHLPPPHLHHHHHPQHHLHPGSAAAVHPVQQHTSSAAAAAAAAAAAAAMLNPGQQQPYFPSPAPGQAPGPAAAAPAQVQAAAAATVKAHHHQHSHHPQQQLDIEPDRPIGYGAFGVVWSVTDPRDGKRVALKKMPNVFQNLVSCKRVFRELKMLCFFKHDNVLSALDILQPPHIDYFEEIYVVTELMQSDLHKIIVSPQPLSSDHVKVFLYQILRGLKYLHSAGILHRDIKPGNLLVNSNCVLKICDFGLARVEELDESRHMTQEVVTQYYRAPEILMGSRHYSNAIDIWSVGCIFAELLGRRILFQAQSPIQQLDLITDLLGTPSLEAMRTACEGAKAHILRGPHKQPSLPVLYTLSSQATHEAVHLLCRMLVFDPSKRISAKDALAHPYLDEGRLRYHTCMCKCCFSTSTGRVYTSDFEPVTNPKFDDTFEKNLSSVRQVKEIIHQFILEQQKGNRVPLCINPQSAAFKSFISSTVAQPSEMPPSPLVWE

[7] = biological target: Serine/threonine-protein kinase PLK3 (Homo sapiens) (UniProt Q9H4B4); assay: Inhibition of PLK3 (unknown origin) assessed as residual activity at 1000 nM by KINOMEscan analysis relative to control
[8] = biological target: Ribosomal protein S6 kinase alpha-5 (Homo sapiens) (UniProt O75582); assay: Inhibition of C-terminal RPS6KA5 kinetic domain 2 (unknown origin) assessed as residual activity at 1000 nM by KINOMEscan analysis relative to control
[9] = biological target: T4, Serine/threonine-protein kinase TBK1 (Homo sapiens) (UniProt Q9UHD2); assay: Inhibition of TBK1 (unknown origin) assessed as residual activity at 1000 nM by KINOMEscan analysis relative to control
T4 sequence (whole entry): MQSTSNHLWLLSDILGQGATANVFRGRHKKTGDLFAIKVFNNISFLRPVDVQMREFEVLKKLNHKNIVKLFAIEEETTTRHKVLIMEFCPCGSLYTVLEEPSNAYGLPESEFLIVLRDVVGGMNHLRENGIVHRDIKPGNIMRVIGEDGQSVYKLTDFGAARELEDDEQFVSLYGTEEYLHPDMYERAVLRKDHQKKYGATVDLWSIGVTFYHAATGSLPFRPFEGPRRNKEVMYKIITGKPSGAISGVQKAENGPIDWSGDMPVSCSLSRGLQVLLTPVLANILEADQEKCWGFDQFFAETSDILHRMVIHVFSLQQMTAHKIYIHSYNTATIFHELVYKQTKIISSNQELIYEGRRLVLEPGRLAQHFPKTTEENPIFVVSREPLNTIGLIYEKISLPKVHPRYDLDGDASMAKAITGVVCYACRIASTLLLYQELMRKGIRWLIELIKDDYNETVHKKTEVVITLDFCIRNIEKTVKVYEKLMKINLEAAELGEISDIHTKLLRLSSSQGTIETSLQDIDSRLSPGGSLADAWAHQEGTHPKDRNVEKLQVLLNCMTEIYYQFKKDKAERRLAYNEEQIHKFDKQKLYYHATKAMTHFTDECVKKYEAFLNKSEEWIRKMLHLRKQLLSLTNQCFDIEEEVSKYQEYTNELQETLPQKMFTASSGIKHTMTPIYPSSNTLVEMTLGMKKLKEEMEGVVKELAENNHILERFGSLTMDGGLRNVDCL

Sequence of Ribosomal protein S6 kinase alpha-5 (Homo sapiens) (O75582 whole entry, looked up, the tested form may be a part): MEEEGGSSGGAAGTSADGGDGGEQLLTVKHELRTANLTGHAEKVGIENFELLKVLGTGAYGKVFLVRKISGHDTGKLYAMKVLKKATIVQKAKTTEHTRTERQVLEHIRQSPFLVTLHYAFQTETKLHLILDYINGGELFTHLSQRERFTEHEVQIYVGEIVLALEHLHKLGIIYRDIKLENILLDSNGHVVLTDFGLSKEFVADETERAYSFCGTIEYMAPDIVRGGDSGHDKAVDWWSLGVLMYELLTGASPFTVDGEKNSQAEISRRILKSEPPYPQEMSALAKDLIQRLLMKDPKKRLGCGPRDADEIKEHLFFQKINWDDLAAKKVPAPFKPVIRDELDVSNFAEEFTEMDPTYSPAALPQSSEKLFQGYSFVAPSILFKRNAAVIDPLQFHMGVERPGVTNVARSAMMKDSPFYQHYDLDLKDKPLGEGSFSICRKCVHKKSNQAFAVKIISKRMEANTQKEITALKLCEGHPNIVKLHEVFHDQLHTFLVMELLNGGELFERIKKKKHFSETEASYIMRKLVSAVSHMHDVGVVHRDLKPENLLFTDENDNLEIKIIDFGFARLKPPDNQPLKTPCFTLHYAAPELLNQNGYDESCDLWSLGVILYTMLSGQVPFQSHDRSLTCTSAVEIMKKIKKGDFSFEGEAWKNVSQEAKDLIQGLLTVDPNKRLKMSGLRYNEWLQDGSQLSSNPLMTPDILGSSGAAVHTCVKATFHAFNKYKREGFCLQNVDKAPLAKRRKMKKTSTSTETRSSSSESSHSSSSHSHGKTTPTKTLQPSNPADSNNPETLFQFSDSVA
Sequence of Serine/threonine-protein kinase PLK3 (Homo sapiens) (Q9H4B4 whole entry, looked up, the tested form may be a part): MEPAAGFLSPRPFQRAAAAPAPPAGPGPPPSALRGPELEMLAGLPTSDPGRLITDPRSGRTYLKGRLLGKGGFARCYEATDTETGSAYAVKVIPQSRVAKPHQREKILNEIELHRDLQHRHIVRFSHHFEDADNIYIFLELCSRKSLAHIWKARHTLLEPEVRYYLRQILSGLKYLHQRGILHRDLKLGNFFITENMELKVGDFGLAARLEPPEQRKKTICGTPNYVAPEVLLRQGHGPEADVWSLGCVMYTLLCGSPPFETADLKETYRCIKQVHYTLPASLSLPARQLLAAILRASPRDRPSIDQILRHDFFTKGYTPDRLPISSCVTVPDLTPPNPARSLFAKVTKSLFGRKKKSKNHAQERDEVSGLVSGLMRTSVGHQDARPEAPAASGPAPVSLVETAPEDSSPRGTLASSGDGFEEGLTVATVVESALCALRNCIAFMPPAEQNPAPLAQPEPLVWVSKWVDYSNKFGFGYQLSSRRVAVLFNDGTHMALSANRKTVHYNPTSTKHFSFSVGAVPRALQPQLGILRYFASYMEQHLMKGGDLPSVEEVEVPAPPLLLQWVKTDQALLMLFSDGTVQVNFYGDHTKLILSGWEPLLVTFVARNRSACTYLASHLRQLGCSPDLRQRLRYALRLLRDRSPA
Sequence of Dual specificity protein kinase CLK1 (Homo sapiens) (P49759 whole entry, looked up): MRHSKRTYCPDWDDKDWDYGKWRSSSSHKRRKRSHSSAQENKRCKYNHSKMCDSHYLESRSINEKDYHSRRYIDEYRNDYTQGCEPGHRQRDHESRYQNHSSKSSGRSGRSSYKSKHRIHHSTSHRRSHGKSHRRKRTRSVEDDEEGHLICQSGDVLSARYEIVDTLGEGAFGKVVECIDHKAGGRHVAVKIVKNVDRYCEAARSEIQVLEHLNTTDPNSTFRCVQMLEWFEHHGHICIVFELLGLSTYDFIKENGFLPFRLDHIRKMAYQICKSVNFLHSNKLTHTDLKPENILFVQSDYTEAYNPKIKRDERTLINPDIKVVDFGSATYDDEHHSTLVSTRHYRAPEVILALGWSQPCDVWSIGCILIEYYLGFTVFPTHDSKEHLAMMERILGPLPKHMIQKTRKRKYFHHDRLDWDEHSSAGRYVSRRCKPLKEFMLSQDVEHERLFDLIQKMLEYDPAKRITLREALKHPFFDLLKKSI
Sequence of Receptor tyrosine-protein kinase erbB-3 (Homo sapiens) (P21860 whole entry): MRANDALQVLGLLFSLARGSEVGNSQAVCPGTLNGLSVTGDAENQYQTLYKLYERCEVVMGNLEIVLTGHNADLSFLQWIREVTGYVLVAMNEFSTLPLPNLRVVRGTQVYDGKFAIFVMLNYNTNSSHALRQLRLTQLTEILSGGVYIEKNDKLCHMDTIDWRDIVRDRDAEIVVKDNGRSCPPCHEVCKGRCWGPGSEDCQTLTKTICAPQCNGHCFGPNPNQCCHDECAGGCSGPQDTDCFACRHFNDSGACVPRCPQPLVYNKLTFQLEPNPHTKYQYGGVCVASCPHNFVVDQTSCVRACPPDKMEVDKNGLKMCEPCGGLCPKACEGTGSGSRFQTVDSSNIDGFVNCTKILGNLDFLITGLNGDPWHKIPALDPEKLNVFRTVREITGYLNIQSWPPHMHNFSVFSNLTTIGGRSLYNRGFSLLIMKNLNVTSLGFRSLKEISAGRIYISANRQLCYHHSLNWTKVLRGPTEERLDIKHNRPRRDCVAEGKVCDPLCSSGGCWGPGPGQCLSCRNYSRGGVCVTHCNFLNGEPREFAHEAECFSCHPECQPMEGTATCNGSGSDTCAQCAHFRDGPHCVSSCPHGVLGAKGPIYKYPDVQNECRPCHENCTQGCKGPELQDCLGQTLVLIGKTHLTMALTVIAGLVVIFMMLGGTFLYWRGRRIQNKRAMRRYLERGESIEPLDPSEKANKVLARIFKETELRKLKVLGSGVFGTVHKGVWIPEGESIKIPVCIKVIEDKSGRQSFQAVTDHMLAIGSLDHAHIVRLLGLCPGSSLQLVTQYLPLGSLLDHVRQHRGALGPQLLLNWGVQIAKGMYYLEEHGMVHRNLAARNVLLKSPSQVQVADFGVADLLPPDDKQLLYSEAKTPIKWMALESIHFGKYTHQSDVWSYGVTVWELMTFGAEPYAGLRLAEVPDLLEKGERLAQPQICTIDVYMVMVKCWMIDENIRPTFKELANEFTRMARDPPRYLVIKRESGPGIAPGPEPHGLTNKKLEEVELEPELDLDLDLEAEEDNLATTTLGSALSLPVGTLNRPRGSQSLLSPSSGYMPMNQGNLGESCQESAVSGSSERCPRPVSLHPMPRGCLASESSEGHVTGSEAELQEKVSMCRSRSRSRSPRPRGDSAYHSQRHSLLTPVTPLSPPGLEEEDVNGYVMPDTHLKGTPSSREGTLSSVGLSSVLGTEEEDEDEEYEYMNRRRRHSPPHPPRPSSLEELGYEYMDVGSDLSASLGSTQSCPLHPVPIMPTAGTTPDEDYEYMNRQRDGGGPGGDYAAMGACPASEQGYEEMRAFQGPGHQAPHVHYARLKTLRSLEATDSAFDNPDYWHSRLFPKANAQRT

Structure (SMILES)	Activity [1] [%]	Activity [2] [%]	Activity [3] [%]	Activity [4] [%]	Activity [5] [%]	Activity [6] [%]	Activity [7] [%]	Activity [8] [%]	Activity [9] [%]
COc1cc2nc(C)nc(N[C@H](C)c3cccc(-c4cn[nH]c4)c3)c2cc1OC	91	70	73	96	54	54	88	100	66
COc1cc2ncnc(N[C@H](C)c3cccc4ccccc34)c2cc1OC	93	100	100	92	100	86	81	92	100
